Patent US20240166626A1, “Compounds and Methods for Preventing, Treating, or Ameliorating Airway Disease” (THOMAS JEFFERSON UNIVERSITY, priority 2021, published 2024)

System: mouse airway tissue
Assay: Measurement of airway contractility in ex vivo mouse lung tissue slices
Experimental: FIGS. 4A-4F: DFPQ inhibits internalization of the β2AR and protects from agonist induced desensitization in cell and tissue models. FIG. 4A: Effect of DFPQ on agonist-promoted internalization of the β2AR. HEK 293 cells stably expressing FLAG-β2AR were pre-incubated with 0.1% DMSO or 10 μM DFPQ for 30 min and then stimulated with the indicated concentrations of ISO for up to 60 min. Cells were fixed and receptor surface expression was measured by ELISA. […] Cells were lysed and cAMP production was measured by ELISA. […] FIG. 4C: Mouse airway tissue were contracted with 1 μM methacholine for 5 min and then incubated overnight with 1 μM ISO±1 μM DFPQ. […] Airway contractility was measured by luminal area of bronchioles by microscopy at various times. […]
Cell culture GLOSENSOR™ cells (Promega) were maintained in Dulbecco's modified Eagle's medium (DMEM) containing 10% fetal bovine serum (FBS) and 200 μg/ml Hygromycin B. […]® ADRB2 cells (DiscoveRx) were maintained with the AssayComplete™ Cell Culture kit (DiscoveRx catalog #92-3107G). […] Cells were read every three minutes for 18 minutes on a PolarStar Optima plate reader (BMG) to establish peak signal. ISO was added to each well to a final concentration of 1 μM, and luminescence was determined in kinetic mode at room temperature (23-25° C.). […] Luminescence was determined at room temperature (23-25° C.) on a PolarStar Optima plate reader (BMG). […]

Fc1ccc(Nc2nc(NC3CCCCC3)c3ccccc3n2)cc1F [DFPQ, N^4-cyclohexyl-N^2-(3,4-difluorophenyl)quinazoline-2,4-diamine]
ISO mediated reversal of airway contraction on day 2 (overnight 1 μM ISO + 1 μM DFPQ, relative to control, FIG. 4C): largely preserved | protection from desensitization (up to 25 minutes post ISO challenge on day 2, FIG. 4D): significant protection from desensitization
